Test results from patent publication US6897219B2, “Heteroaryl diazacycloalkanes, their preparation and use” (priority 1997, dated 2005).

How the values were obtained:
[1] = target: nAChR formed by the α7 subunit isoform (Rattus norvegicus, UniProt Q05941); test: biochemical; type: binding
[2] = target: T1, neuronal nicotinic receptors (α4β2 subtype high affinity site) (Rattus norvegicus, UniProt P09483+P12390); test: In vitro inhibition of 3H-epibatidin binding; conditions: rat forebrain homogenate, 0.3 nM 3H-epibatidin, 60 min at room temperature; read-out: 3H-epibatidin IC50
T1 construct: The forebrain (÷cerebellum) from a male Wistar rat (150-250 g) is homogenized; from tissue; host or cells: rat forebrain (without cerebellum) membrane homogenate
Protocol: The high affinity binding site for ^3H-epibatidin is most certainly binding to the α4β2 subtype of nicotinic receptors. The identity of the low affinity site is still unknown; does it represent a second nicotinic receptor or a second site in the same receptor.
Tissue preparation: Preparations are performed at 0-4° C. unless otherwise indicated. The forebrain (÷cerebellum) from a male Wistar rat (150-250 g) is homogenized for 10-20 sec in 20 ml Tris, HCl (50 mM, pH 7.4) using an Ultra-Turrax homogenizer. The tissue suspension is centrifuged at 27,000×g for 10 min. The supernatant is discarded and the pellet is washed three times by centrifugation at 27,000×g for 10 min in 20 ml fresh buffer, and the final pellet is resuspended in fresh buffer (400 ml per g of original tissue) and used for binding assays.
Assay: Aliquots of 2.0 ml homogenate are added to 0.100 ml of test solution and 0.100 ml of ^3H-epibatidin (0.3 nM, final concentration), mixed and incubated for 60 min at room temperature. Non-specific binding is determined using (−)-nicotine (30 μM, final concentration). After incubation the samples are poured directly onto Whatman GF/C glass fibre filters (presoaked in 0.1% PEI for at least 20 min) under suction and immediately washed with 2×5 ml ice-cold buffer. The amount of radioactivity on the filters is determined by conventional liquid scintillation counting. Specific binding is total binding minus non-specific binding.

[3] = target: nAChRs comprised of α4 and β2 subunits (Rattus norvegicus, UniProt P09483+P12390); test: In vitro inhibition of 3H-cytisine binding
Protocol: The predominant subtype with high affinity for nicotine is comprised of α4 and β2 subunits. nAChRs of the latter type can selectively be labelled by the nicotine agonist ^3H-cytisine.
Tissue Preparation: Preparations are performed at 0-4° C. unless otherwise indicated. […] The homogenate is centrifuged at 27,000×g for 10 min. The supernatant is discarded and the pellet is resuspended in fresh buffer and centrifuged a second time. The final pellet is resuspended in fresh buffer (35 ml per g of original tissue) and used for binding assays.
Assay: Aliquots of 500 μl homogenate are added to 25 μl of test solution and 25 μl of ^3H-cytisine (1 nM, final concentration), mixed and incubated for 90 min at 2° C. Non-specific binding is determined using (−)-nicotine (100 μM, final concentration). After incubation the samples are added 5 ml of ice-cold buffer and poured directly onto Whatman GF/C glass fibre filters under suction and immediately washed with 2×5 ml ice-cold buffer. The amount of radioactivity on the filters is determined by conventional liquid scintillation counting. Specific binding is total binding minus non-specific binding.

[4] = relative to morphine; cited from earlier work

Sequence of nAChRs comprised of α4 and β2 subunits (P09483 31-630): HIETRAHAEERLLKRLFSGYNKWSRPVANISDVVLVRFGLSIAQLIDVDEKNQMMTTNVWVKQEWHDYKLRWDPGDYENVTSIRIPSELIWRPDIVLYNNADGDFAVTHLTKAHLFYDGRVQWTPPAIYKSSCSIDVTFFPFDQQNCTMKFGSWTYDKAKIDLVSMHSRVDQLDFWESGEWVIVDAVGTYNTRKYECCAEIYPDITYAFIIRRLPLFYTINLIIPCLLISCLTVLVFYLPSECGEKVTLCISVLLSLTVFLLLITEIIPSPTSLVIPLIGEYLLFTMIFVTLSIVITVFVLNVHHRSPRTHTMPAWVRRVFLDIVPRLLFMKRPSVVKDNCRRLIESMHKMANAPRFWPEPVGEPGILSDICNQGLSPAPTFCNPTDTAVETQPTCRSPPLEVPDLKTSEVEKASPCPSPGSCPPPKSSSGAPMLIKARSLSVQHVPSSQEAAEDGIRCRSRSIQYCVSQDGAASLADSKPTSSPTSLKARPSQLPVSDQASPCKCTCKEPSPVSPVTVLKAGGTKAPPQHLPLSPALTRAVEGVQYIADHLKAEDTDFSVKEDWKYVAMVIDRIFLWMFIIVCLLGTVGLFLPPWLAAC
Sequence of nAChRs comprised of α4 and β2 subunits (P12390 25-500): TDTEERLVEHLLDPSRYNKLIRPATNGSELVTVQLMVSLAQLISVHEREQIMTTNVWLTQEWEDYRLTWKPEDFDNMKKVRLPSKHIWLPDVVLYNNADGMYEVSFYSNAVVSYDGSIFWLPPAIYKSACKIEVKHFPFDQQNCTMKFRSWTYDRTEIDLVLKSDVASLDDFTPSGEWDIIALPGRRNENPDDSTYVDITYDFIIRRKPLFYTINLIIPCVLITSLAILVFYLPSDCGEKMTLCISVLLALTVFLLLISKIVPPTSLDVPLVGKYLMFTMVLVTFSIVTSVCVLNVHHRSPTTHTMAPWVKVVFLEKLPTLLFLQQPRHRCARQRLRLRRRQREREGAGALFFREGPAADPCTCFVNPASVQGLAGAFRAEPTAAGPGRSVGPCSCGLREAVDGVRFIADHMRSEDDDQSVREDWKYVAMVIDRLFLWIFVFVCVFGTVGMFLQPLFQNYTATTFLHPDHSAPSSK
T1 sequence (P09483 31-630): as the sequence (P09483 31-630) above
T1 sequence (P12390 25-500): as the sequence (P12390 25-500) above
Sequence of nAChR formed by the α7 subunit isoform (Q05941 23-502): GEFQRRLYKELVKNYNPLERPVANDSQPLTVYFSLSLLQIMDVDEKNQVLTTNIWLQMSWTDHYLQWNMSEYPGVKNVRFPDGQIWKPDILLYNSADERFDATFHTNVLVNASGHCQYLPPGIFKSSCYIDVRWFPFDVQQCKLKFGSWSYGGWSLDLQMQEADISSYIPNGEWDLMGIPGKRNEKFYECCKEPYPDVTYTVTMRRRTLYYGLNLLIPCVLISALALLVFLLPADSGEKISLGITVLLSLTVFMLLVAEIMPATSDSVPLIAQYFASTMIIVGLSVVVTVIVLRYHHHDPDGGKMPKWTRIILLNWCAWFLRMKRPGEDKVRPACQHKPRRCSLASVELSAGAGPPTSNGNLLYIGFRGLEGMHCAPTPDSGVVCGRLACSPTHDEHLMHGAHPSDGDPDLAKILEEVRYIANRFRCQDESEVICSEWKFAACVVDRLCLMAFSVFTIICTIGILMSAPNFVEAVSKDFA

SMILES | IC50 [1] [µM] | IC50 [2] [µM] | IC50 [3] [µM] | melting point [°C] | analgesic potency, times that of morphine [4] [times]
COc1cncc(N2CCN(C)CC2)c1 [Compound 3A, 4-Methyl-1-(5-methoxy-3-pyridyl)-piperazine] | 32.5 | 0.38 | 0.068 | 67.5 to 68 | 
Clc1ccc(C2CC3CCC2N3)cn1 (centres unmarked) [Epibatidine] |  |  |  |  | ~500
